# From US7687453B2, “Method for administering insulin to the buccal region” (Generex Pharmaceuticals Incorporated, priority 1998, dated 2010)
# Assays:
# blood glucose [1] = experiment: Blood glucose, oral mixed micellar insulin (bacitracin, evening primrose oil) vs injection, fasted volunteers (Example 14); type: in vivo, human; details: injection 10 units, avg of six fasted volunteers
# Method: Six human volunteers were studied. The volunteers fasted from midnight prior to the test, with no food being taken during the 4 hour study. On the first day, the volunteers received 10 units insulin by injection (regular fast acting insulin, available from Eli Lilly). On the second day, the volunteers received 20 units of the above-prepared oral insulin (twice the injection dose). In both tests, blood glucose levels were monitored at intervals by Bayer's Glucometer Elite.
# blood glucose [2] = experiment: Blood glucose, oral mixed micellar insulin vs injection, fasted Type II diabetic volunteers (Example 8); type: in vivo, human; details: injection 10 units, avg of 10 fasted Type II diabetics
# Method: In one set of tests, ten Type II diabetic human volunteers who took insulin, by injection three times a day, were studied. In another set of tests the volunteers were tested with insulin, faken orally. The volunteers fasted from midnight prior to the test, with no food being taken during the 4 hour study. On the first day, the volunteers received 10 units insulin by injection (regular fast acting insulin, available from Eli Lilly). On the second day, the volunteers received 30 units (1 mL volume per drop, approximately 20 drops) of the above-prepared oral insulin (3 times the injection dose). In both tests, blood glucose levels were monitored every 15 minutes by Bayer's Glucometer Elite.
substance,measurement,setting,value
"regular fast acting insulin: regular fast acting insulin, available from Eli Lilly, given by injection (10 units)",Blood glucose levels,blood glucose [1]; 0 min,7.9 mmol/L
same,Blood glucose levels,blood glucose [1]; 15 min,7.9 mmol/L
same,Blood glucose levels,blood glucose [1]; 30 min,8.2 mmol/L
same,Blood glucose levels,blood glucose [1]; 45 min,8.3 mmol/L
same,Blood glucose levels,blood glucose [1]; 60 min,7.6 mmol/L
same,Blood glucose levels,blood glucose [1]; 90 min,6.2 mmol/L
same,Blood glucose levels,blood glucose [1]; 120 min,5.2 mmol/L
same,Blood glucose levels,blood glucose [1]; 150 min,4.6 mmol/L
same,Blood glucose levels,blood glucose [1]; 180 min,3.9 mmol/L
same,Blood glucose levels,blood glucose [1]; 210 min,4.4 mmol/L
same,Blood glucose levels,blood glucose [1]; 240 min,5.2 mmol/L
same,Blood glucose levels,blood glucose [2]; 0 min,6.8 mmol/L
same,Blood glucose levels,blood glucose [2]; 15 min,6.9 mmol/L
same,Blood glucose levels,blood glucose [2]; 30 min,6.1 mmol/L
same,Blood glucose levels,blood glucose [2]; 45 min,5.8 mmol/L
same,Blood glucose levels,blood glucose [2]; 60 min,5.8 mmol/L
same,Blood glucose levels,blood glucose [2]; 75 min,5.8 mmol/L
same,Blood glucose levels,blood glucose [2]; 90 min,5.4 mmol/L
same,Blood glucose levels,blood glucose [2]; 105 min,5.4 mmol/L
same,Blood glucose levels,blood glucose [2]; 120 min,5.2 mmol/L
same,Blood glucose levels,blood glucose [2]; 135 min,5.1 mmol/L
same,Blood glucose levels,blood glucose [2]; 150 min,4.9 mmol/L
same,Blood glucose levels,blood glucose [2]; 165 min,4.9 mmol/L
same,Blood glucose levels,blood glucose [2]; 180 min,4.8 mmol/L
same,Blood glucose levels,blood glucose [2]; 195 min,4.8 mmol/L
same,Blood glucose levels,blood glucose [2]; 210 min,5.2 mmol/L
same,Blood glucose levels,blood glucose [2]; 225 min,5.2 mmol/L
same,Blood glucose levels,blood glucose [2]; 240 min,5.4 mmol/L
